From ChEMBL document CHEMBL1201862, “PubChem BioAssay data set” (2004)
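48-hour exposure; five concentrations; linearly interpolated endpoints. Here, GI50 denotes the concentration required for 50% inhibition of growth.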 Calls of active or inactive are those of the source. No stated cut-off is given here; in the data, active = GI50 up to about 1.1 µM and inactive = higher.

Columns and labels:
Assay in all cases: growth of human tumour cells (NCI), 48 h
SK-OV-3 = system: SK-OV-3
ACHN = system: ACHN
HCT-15 = system: HCT-15
EKVX = system: EKVX
NCI-H23 = system: NCI-H23
HOP-62 = system: HOP-62
SK-MEL-2 = system: SK-MEL-2
SNB-19 = system: SNB-19
UACC-257 = system: UACC-257
LOX IMVI = system: LOX IMVI
OVCAR-5 = system: OVCAR-5
SF-539 = system: SF-539
IGROV-1 = system: IGROV-1
NCI-H226 = system: NCI-H226
MOLT-4 = system: MOLT-4
SR = system: SR
HCC 2998 = system: HCC 2998
KM12 = system: KM12

SMILES	GI50 (SK-OV-3)	GI50 (ACHN)	GI50 (HCT-15) [µM]	GI50 (EKVX)	GI50 (NCI-H23)	GI50 (HOP-62)	GI50 (SK-MEL-2)	GI50 (SNB-19)	GI50 (UACC-257)	GI50 (LOX IMVI)	GI50 (OVCAR-5)	GI50 (SF-539)	GI50 (IGROV-1)	GI50 (NCI-H226)	GI50 (MOLT-4)	GI50 (SR)	GI50 (HCC 2998)	GI50 (KM12)
CC(=O)Nc1ccc(C(=O)NN2C(=O)C(Cl)C2c2ccccc2O)cc1 (stereo not drawn)	12.9 µM (inactive)	> 100 µM (inactive)	3.36	99.8 µM (inactive)	19.7 µM (inactive)	14.2 µM (inactive)	15.7 µM (inactive)	36.6 µM (inactive)	> 100 µM (inactive)	13.2 µM (inactive)	> 100 µM (inactive)	42.1 µM (inactive)	> 100 µM (inactive)	> 100 µM (inactive)				
c1ccc2cc(C3NCCc4nc[nH]c43)ccc2c1 (stereo not drawn)	> 100 µM (inactive)	23.5 µM (inactive)	42.6		> 100 µM (inactive)	> 100 µM (inactive)	72.8 µM (inactive)		26.7 µM (inactive)	71.6 µM (inactive)	> 100 µM (inactive)	89.1 µM (inactive)	> 100 µM (inactive)	> 100 µM (inactive)	25.1 µM (inactive)	54.2 µM (inactive)	59.6 µM (inactive)	17.3 µM (inactive)
NCC(NC(=O)OCc1ccccc1)C(=O)O (stereo not drawn)	> 50 µM (inactive)	> 50 µM (inactive)	> 50	> 50 µM (inactive)	> 50 µM (inactive)	> 50 µM (inactive)	> 50 µM (inactive)	> 50 µM (inactive)	> 50 µM (inactive)	> 50 µM (inactive)	> 50 µM (inactive)	> 50 µM (inactive)	> 50 µM (inactive)	> 50 µM (inactive)	> 50 µM (inactive)		> 50 µM (inactive)	> 50 µM (inactive)
NNC(=O)N/N=C1\C(=O)N(c2ccc(Cl)c(Cl)c2)C(=O)C(=O)C1c1nc2ccccc2s1 (stereo not drawn)	> 100 µM (inactive)	> 100 µM (inactive)	> 100	> 100 µM (inactive)	> 100 µM (inactive)	> 100 µM (inactive)	> 100 µM (inactive)	> 100 µM (inactive)	> 100 µM (inactive)			> 100 µM (inactive)	> 100 µM (inactive)	> 100 µM (inactive)	69.3 µM (inactive)	89.9 µM (inactive)	> 100 µM (inactive)	> 100 µM (inactive)
COc1nc2c(c(O)c(C)c(=O)n2OC2OC(COC(C)=O)C(OC(C)=O)C(OC(C)=O)C2OC(C)=O)c(=O)n1C (stereo not drawn)		> 100 µM (inactive)	> 100	> 100 µM (inactive)	> 100 µM (inactive)	> 100 µM (inactive)	> 100 µM (inactive)	> 100 µM (inactive)		> 100 µM (inactive)	> 100 µM (inactive)	> 100 µM (inactive)	> 100 µM (inactive)	> 100 µM (inactive)	> 100 µM (inactive)	> 100 µM (inactive)	> 100 µM (inactive)	> 100 µM (inactive)
Cc1ccccc1N(CCC#N)C1=NN(C(=O)CC(=O)Nc2ccccc2)C(c2ccccc2)C1 (stereo not drawn)	> 100 µM (inactive)	> 100 µM (inactive)	> 100	> 100 µM (inactive)	> 100 µM (inactive)	> 100 µM (inactive)	> 100 µM (inactive)	> 100 µM (inactive)	> 100 µM (inactive)		> 100 µM (inactive)	> 100 µM (inactive)	> 100 µM (inactive)	> 100 µM (inactive)	> 100 µM (inactive)	44.1 µM (inactive)	> 100 µM (inactive)	> 100 µM (inactive)
CC(=O)OC1CC2(C)OC(Cc3ccccc32)O1 (stereo not drawn)	> 100 µM (inactive)	> 100 µM (inactive)		> 100 µM (inactive)	> 100 µM (inactive)	> 100 µM (inactive)	> 100 µM (inactive)	> 100 µM (inactive)	> 100 µM (inactive)	> 100 µM (inactive)		> 100 µM (inactive)	> 100 µM (inactive)	> 100 µM (inactive)	> 100 µM (inactive)	> 100 µM (inactive)	> 100 µM (inactive)	> 100 µM (inactive)
CN1NC2(CCCCC2)ON=C1c1ccccc1	> 100 µM (inactive)	> 100 µM (inactive)	> 100	> 100 µM (inactive)	> 100 µM (inactive)	> 100 µM (inactive)		> 100 µM (inactive)	> 100 µM (inactive)	> 100 µM (inactive)	> 100 µM (inactive)	> 100 µM (inactive)	> 100 µM (inactive)	> 100 µM (inactive)	> 100 µM (inactive)	> 100 µM (inactive)		> 100 µM (inactive)
Cc1ccc(S(=O)(=O)C(CC(NC=O)S(=O)(=O)c2ccc(C)cc2)NC=O)cc1 (stereo not drawn)	> 100 µM (inactive)		> 100	> 100 µM (inactive)	> 100 µM (inactive)	> 100 µM (inactive)		> 100 µM (inactive)	> 100 µM (inactive)	> 100 µM (inactive)		> 100 µM (inactive)	> 100 µM (inactive)	> 100 µM (inactive)	> 100 µM (inactive)	> 100 µM (inactive)	> 100 µM (inactive)	> 100 µM (inactive)
